The record followed here is article PMC8989888, “Development of optimized drug-like small molecule inhibitors of the SARS-CoV-2 3CL protease for treatment of COVID-19” (Nature Communications, 2022).

In this assay the target is SARS-CoV-2 3CL protease (Severe acute respiratory syndrome coronavirus 2, UniProt P0DTD1). It is filed as biochemical. Also on record: Avg: unit not given here. As to conditions: for Inhibition at 10 µM: 10 µM compound; for Inhibition at 100 µM: 100 µM compound; for IC50 / LogIC50: Figure S1 and S2.
The mark [1] stands for this setting: log of IC50 (µM), dose-response curve fit.
Where [2] appears, read: Conc 10 µM, average response of dose-response curve.
The mark [3] stands for this setting: Conc 15 µM, average response of dose-response curve.
[4] abbreviates: Conc 20 µM, average response of dose-response curve.
Where [5] appears, read: Conc 50 µM, average response of dose-response curve.
[6] abbreviates: Conc 100 µM, average response of dose-response curve.
Setting [7] is: Conc 200 µM, average response of dose-response curve.
The mark [8] stands for this setting: dose-response retest of fragment hits.

Structures are written as SMILES. Like-named read-outs stand apart in the source and are kept apart here.

For `COC(C)(C)CNC(=O)c1cccnc1S` [Z1274680193], the Inhibition (usually the percentage by which the read-out fell short of the control) at 10 µM is 27% and the “Inhibition at 100 µM” value is on record as 80%. Further, the Avg (Conc 10 µM) worked out at 27.3. The Avg (Conc 15 µM) was found to be 54.6. This molecule also came in with an Avg (Conc 20 µM) of 67.5. The same molecule gave an Avg (Conc 50 µM) of 90.4. Moreover, where the note is “Conc 100 µM”, the Avg is 80.1. Also, the Avg (Conc 200 µM) came out at 60.9. The half-inhibitory concentration (IC50) – broadly, the concentration that inhibits the measured activity by half – (dose-response curve fit) is 14.2 µM. For the same molecule, under setting [1], the LogIC50 worked out at 1.153.
`O=C(NCCC(O)c1ccccc1)c1cccnc1S` (stereo not shown) [Z1275438373]: the “Inhibition at 10 µM” value is recorded as 13% and the “Inhibition at 100 µM” value is 100%. Moreover, the Avg (Conc 10 µM) worked out at 12.5. Besides, the Avg (Conc 15 µM) turned out to be 9.1. Further, the Avg (Conc 20 µM) is reported as 42.4. In addition, under “Conc 50 µM”, the Avg is 99.1. Moreover, where the note is “Conc 100 µM”, the Avg was 101.3. Also, the Avg (Conc 200 µM) came to 95.1. Where the note is “dose-response curve fit”, this molecule showed an IC50 of 20.2 µM. The molecule further registered a LogIC50 under setting [1] of 1.3058.
As for `O=C(NCC(CO)c1ccccc1)c1cccnc1S` (stereo not shown) [Z1346056045], the “Inhibition at 10 µM” value is recorded as 2% and the “Inhibition at 100 µM” value is 96%. The molecule also showed an Avg (Conc 10 µM) of 2.4. Also, the Avg (Conc 15 µM) is 13.5. Besides, where the note is “Conc 20 µM”, the Avg worked out at 19.9. The Avg (Conc 50 µM) was determined as 74.2. In addition, the Avg (Conc 100 µM) is on record as 95.6. This molecule registered an Avg (Conc 200 µM) of 87.7. This molecule also gave an IC50 (dose-response curve fit) of 32.4 µM. Besides, the LogIC50 under setting [1] came out at 1.51.
With `CCNC(=O)N1CCC(NC(=O)c2cccnc2S)C1` (stereo not shown) [Z1421663935], the “Inhibition at 10 µM” value is given as 4% and the “Inhibition at 100 µM” value stood at 100%. Where the note is “Conc 10 µM”, the Avg was 3.7. The molecule also returned an Avg (Conc 15 µM) of 20. The molecule also registered an Avg (Conc 20 µM) of 18.3. The Avg (Conc 50 µM) is given as 97.3. For the setting “Conc 100 µM”, this molecule registered an Avg of 103.3. Further, the Avg (Conc 200 µM) worked out at 100. Under “dose-response curve fit”, this molecule yielded an IC50 of 28 µM. Also, the LogIC50 under setting [1] was 1.447.
For the molecule `CCC(=O)N1CCC(NC(=O)c2cccnc2S)C1` (stereo not shown) [Z1429050837], the “Inhibition at 10 µM” value is on record as 24% and the “Inhibition at 100 µM” value is recorded as 100%. This molecule yielded an Avg (Conc 10 µM) of 24.1. This molecule came in with an Avg (Conc 15 µM) of 26.1. In addition, where the note is “Conc 20 µM”, the Avg is 20.9. This molecule also showed an Avg (Conc 50 µM) of 87.9. In addition, the Avg (Conc 100 µM) is 102.1. Also, the Avg (Conc 200 µM) worked out at 100.5. Further, for the setting “dose-response curve fit”, it took 42.3 µM to reach half-maximal inhibition (IC50). Under setting [1], this molecule yielded a LogIC50 of 1.626.
In the case of `Cc1nc(CCNC(=O)c2cccnc2S)sc1C` [Z1432661577], the “Inhibition at 10 µM” value amounted to 10% and the “Inhibition at 100 µM” value was 100%. Moreover, the Avg (Conc 10 µM) came out at 10.2. Under “Conc 15 µM”, this molecule showed an Avg of 5.7. Under “Conc 20 µM”, the Avg was 26.8. The molecule further showed an Avg (Conc 50 µM) of 103. The molecule further registered an Avg (Conc 100 µM) of 104.1. The molecule further came in with an Avg (Conc 200 µM) of 108.4. Under “dose-response curve fit”, this molecule yielded an IC50 of 20.8 µM. The molecule also came in with a LogIC50 under setting [1] of 1.319.
For the molecule `COC1(CNC(=O)c2cccnc2S)CCOCC1` [Z1483040147], the “Inhibition at 10 µM” value is given as 0% and the “Inhibition at 100 µM” value is listed as 90%. The molecule further gave an Avg (Conc 10 µM) of -6.5. The molecule further showed an Avg (Conc 15 µM) of -1.8. The molecule further registered an Avg (Conc 20 µM) of 13.4. Further, under “Conc 50 µM”, the Avg amounted to 61.8. The molecule further came in with an Avg (Conc 100 µM) of 90. Also, where the note is “Conc 200 µM”, the Avg is recorded as 90.2. The molecule further came in with a half-inhibitory concentration (IC50) (dose-response curve fit) of 39.7 µM. Also, the LogIC50 under setting [1] turned out to be 1.599.
In the case of `Cn1cc(CNC(=O)c2cccnc2S)c(C(F)(F)F)n1` [Z1488388701], the “Inhibition at 10 µM” value came to 2% and the “Inhibition at 100 µM” value amounted to 100%. This molecule returned an Avg (Conc 10 µM) of 2.1. Further, the Avg (Conc 15 µM) was 19.8. For the same molecule, for the setting “Conc 20 µM”, the Avg was found to be 26.9. For the setting “Conc 50 µM”, this molecule displayed an Avg of 96.9. For the same molecule, the Avg (Conc 100 µM) turned out to be 107.8. This molecule came in with an Avg (Conc 200 µM) of 105. The IC50 (dose-response curve fit) amounted to 25.7 µM. Moreover, the LogIC50 under setting [1] was 1.41.
Consider `CC(C)Cc1ncc(CNC(=O)c2cccnc2S)s1` [Z1494348106], for which the “Inhibition at 10 µM” value is reported as 4% and the “Inhibition at 100 µM” value was 100%. The Avg (Conc 10 µM) is 3.5. The molecule further gave an Avg (Conc 15 µM) of 37.1. For the same molecule, the Avg (Conc 20 µM) stood at 49.8. The molecule further gave an Avg (Conc 50 µM) of 100.8. Further, the Avg (Conc 100 µM) was 102.9. For the setting “Conc 200 µM”, the Avg is 93.1. For the setting “dose-response curve fit”, this molecule came in with a half-inhibitory concentration (IC50) of 18.8 µM. For the same molecule, the LogIC50 under setting [1] amounted to 1.275.
With `O=C(NCc1ncccc1F)c1cccnc1S` [Z1499268500], the “Inhibition at 10 µM” value is recorded as 17% and the “Inhibition at 100 µM” value turned out to be 100%. Where the note is “Conc 10 µM”, this molecule came in with an Avg of 17.2. For the same molecule, the Avg (Conc 15 µM) worked out at 49.3. Further, the Avg (Conc 20 µM) is on record as 94.7. In addition, the Avg (Conc 50 µM) amounted to 100.1. In addition, the Avg (Conc 100 µM) stood at 91.4. The Avg (Conc 200 µM) is 94.2. The same molecule returned a half-maximal inhibitory concentration (IC50) (dose-response curve fit) of 15 µM. The LogIC50 under setting [1] is given as 1.1775.
On to `CC(C)OC1CCC(NC(=O)c2cccnc2S)CC1` (stereo not shown) [Z1500153099], for which the “Inhibition at 10 µM” value came out at 2% and the “Inhibition at 100 µM” value worked out at 96%. Moreover, where the note is “Conc 10 µM”, the Avg is 2.2. Under “Conc 15 µM”, this molecule came in with an Avg of 13. Besides, the Avg (Conc 20 µM) was determined as 32.4. The same molecule showed an Avg (Conc 50 µM) of 52.9. Further, where the note is “Conc 100 µM”, the Avg worked out at 96.3. For the same molecule, the Avg (Conc 200 µM) came out at 103. The molecule further yielded a concentration for half-maximal inhibition (IC50) (dose-response curve fit) of 37.9 µM. Under setting [1], the LogIC50 stood at 1.579.
As to `O=C(NCc1ccc(F)c(CO)c1)c1cccnc1S` [Z1501229042], the “Inhibition at 10 µM” value turned out to be 27% and the “Inhibition at 100 µM” value worked out at 100%. The Avg (Conc 10 µM) turned out to be 26.5. The molecule further came in with an Avg (Conc 15 µM) of 32.3. In addition, where the note is “Conc 20 µM”, the Avg turned out to be 50.8. Also, the Avg (Conc 50 µM) came to 101.4. This molecule also returned an Avg (Conc 100 µM) of 101.9. In addition, the Avg (Conc 200 µM) was 89.2. This molecule showed a half-maximal inhibitory concentration (IC50) (dose-response curve fit) of 19.9 µM. This molecule gave a LogIC50 under setting [1] of 1.299.
For the molecule `O=C(NCC1(O)CCc2ccccc21)c1cccnc1S` (stereo not shown) [Z1501256406], the “Inhibition at 10 µM” value was 55% and the “Inhibition at 100 µM” value turned out to be 82%. This molecule also yielded an Avg (Conc 10 µM) of 55.2. The molecule further displayed an Avg (Conc 15 µM) of 87.1. Where the note is “Conc 20 µM”, the Avg is reported as 101.3. The Avg (Conc 50 µM) stood at 96.8. In addition, the Avg (Conc 100 µM) was 82.6. This molecule registered an Avg (Conc 200 µM) of 65.5.
As to `O=C(NCCC1=CCOCC1)c1cccnc1S` [Z1510476385], the “Inhibition at 10 µM” value is given as 0% and the “Inhibition at 100 µM” value is on record as 99%. The molecule further returned an Avg under setting [2] of 0.1. The same molecule displayed an Avg under setting [3] of 16. The same molecule gave an Avg under setting [4] of 18.7. This molecule also gave an Avg under setting [5] of 80.4. The molecule also displayed an Avg under setting [6] of 98.6. For the same molecule, the Avg under setting [7] came out at 100.4. Under setting [8], this molecule showed an IC50 of 31.3 µM. Further, the LogIC50 (log of IC50 in µM) is reported as 1.496.
For the molecule `Cc1cnccc1CCNC(=O)c1cccnc1S` [Z1515958452], the “Inhibition at 10 µM” value was found to be 4% and the “Inhibition at 100 µM” value is 100%. In addition, the Avg under setting [2] was 4. Besides, under setting [3], the Avg is -6.1. Besides, under setting [4], the Avg is given as 25.7. Besides, the Avg under setting [5] is 93.3. The molecule further yielded an Avg under setting [6] of 101.4. Further, the Avg under setting [7] is recorded as 97.8. This molecule also returned a half-inhibitory concentration (IC50) under setting [8] of 20.6 µM. This molecule also registered a LogIC50 (log of IC50 in µM) of 1.315.
